Reference: ChEMBL document CHEMBL1201862, “PubChem BioAssay data set” (2004)
Active and inactive are the calls of the source.

Legend:
[1] = target: T1, Corticotropin-releasing factor receptor 2/Corticotropin-releasing factor-binding protein (Homo sapiens, UniProt P24387+Q13324); test: activators of CRF receptor 2 with binding protein – uHTS hits, confirmation (AID 602473); assay type: functional; settings: read-out: EC50_Mean
T1 sequence (Q13324 whole entry): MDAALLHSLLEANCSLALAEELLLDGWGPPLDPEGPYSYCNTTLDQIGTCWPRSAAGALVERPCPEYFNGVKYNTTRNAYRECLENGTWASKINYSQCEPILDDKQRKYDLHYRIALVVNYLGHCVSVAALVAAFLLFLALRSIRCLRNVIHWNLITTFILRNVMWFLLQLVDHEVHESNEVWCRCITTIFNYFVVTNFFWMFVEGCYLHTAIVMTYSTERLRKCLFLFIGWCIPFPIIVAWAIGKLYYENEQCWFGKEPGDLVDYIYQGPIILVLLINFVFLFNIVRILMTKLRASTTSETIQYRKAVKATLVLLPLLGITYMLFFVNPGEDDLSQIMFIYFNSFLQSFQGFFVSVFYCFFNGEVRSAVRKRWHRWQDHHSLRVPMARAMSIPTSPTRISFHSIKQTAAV
T1 sequence (P24387 whole entry): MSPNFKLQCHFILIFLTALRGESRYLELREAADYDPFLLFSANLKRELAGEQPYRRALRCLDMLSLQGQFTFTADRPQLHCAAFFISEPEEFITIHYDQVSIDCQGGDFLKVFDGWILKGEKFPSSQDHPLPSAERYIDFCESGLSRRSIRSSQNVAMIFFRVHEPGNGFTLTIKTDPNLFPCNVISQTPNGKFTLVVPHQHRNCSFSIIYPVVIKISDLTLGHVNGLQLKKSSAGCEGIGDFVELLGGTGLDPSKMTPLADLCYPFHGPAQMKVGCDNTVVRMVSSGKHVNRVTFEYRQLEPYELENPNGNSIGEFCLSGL

[2] = target: T1, Corticotropin-releasing factor receptor 2/Corticotropin-releasing factor-binding protein; test: Dose Response confirmation of uHTS hits for small molecule antagonists of the CRF-binding protein and CRF-R2 receptor complex.; assay type: functional; settings: read-out: IC50_Mean
H4 = test: Luminescence Cell-Based Dose Response HTS to Identify Activators of 5'UTR Stem-Loop Driven Prion Protein mRNA Translation in H4 Neuroglioblastoma Cells. [Related pubchem assays: 1829 (Project Summary), 1814 (Primary HTS)]; assay type: functional; settings: Homo sapiens
[3] = Luminescence Cell-Based Dose Response HTS to Identify Activators of Luciferase Translation or Activity in H4 […] Cells. [Related pubchem assays: 1829 (Project Summary), 1814 (Primary HTS)]; assay type: functional
Cytochrome P450 2C19 = Cytochrome P450 2C19 (Homo sapiens, UniProt P33261); test: Cytochrome panel assay with activity outcomes. Panel member name: p450-cyp2c19 Compounds with AC50 equal or less than 10 uM are considered active; assay type: functional
Sequence of Cytochrome P450 2C19 (P33261 whole entry): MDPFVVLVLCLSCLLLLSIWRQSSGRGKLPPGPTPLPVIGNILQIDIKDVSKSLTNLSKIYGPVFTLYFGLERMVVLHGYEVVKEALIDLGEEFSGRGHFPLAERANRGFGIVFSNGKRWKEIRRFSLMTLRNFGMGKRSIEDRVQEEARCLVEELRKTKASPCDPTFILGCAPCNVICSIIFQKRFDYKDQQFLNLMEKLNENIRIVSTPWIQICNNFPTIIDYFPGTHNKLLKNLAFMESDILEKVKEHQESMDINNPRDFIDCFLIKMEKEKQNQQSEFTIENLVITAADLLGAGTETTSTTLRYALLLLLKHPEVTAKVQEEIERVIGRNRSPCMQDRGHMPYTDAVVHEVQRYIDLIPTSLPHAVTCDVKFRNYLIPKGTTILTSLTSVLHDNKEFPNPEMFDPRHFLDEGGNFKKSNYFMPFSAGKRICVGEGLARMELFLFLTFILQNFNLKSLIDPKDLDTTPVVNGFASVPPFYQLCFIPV

Streptokinase A = target: T2, Streptokinase A (Streptococcus pyogenes serotype M1, UniProt P10520); test: viability-normalized secreted streptokinase activity reduction – plasminogen activation absorbance, OD405, dose response (AID 1914); assay type: functional, Streptococcus pyogenes M1 GAS;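 note: secreted streptokinase activity via plasminogen activation per viability signal from cell pellet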
T2 sequence (P10520 whole entry): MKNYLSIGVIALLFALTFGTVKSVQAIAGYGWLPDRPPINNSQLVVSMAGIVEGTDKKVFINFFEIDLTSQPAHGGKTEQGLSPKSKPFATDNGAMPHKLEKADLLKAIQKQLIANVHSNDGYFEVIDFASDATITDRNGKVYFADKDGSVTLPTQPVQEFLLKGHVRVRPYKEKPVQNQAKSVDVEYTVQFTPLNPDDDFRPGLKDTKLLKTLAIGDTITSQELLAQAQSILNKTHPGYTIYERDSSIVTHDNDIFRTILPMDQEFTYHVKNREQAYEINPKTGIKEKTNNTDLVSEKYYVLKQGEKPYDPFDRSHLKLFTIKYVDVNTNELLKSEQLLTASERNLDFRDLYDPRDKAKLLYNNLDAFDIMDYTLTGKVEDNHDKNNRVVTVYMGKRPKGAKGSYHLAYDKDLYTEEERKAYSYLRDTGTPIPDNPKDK

[4] = target: T3, Replicative DNA helicase DnaB (Mycobacterium tuberculosis, UniProt P9WMR3); test: DnaB intein splicing inhibitors, dose response, biochemical, cell-free fluorescence (AID 449749); assay type: functional
T3 sequence (P9WMR3 whole entry): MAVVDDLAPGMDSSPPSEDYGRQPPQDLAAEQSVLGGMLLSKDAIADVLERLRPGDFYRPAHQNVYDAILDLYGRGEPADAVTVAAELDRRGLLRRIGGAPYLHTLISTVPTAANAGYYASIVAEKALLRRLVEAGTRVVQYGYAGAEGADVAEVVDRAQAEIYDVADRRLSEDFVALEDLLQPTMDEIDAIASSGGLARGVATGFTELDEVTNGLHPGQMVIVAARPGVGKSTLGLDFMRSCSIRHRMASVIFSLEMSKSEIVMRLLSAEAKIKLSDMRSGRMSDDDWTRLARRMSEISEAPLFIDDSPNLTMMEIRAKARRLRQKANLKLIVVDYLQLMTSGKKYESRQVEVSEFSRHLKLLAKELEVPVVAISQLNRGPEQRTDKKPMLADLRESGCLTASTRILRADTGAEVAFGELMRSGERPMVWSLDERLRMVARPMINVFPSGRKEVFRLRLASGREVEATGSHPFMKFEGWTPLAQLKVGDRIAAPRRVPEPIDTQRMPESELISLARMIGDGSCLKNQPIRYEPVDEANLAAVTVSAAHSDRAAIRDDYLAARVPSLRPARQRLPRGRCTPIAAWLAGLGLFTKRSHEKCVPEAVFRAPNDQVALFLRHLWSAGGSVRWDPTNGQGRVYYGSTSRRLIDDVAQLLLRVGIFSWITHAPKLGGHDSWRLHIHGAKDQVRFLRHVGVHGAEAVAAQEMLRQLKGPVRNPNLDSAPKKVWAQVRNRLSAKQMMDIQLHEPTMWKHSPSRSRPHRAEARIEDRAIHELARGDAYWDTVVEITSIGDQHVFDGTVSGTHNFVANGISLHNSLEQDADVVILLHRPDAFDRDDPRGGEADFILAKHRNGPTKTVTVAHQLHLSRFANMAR

Protein RecA = target: T4, Protein RecA (Mycobacterium tuberculosis, UniProt P9WHJ3); test: Fluorescence Cell-Free Homogeneous Dose Retest to Identify Inhibitors of RecA-Intein Splicing Activity. [Related pubchem assays (depositor defined):AID2097, AID2223, AID489010, AID492950]; assay type: functional
T4 sequence (P9WHJ3 whole entry): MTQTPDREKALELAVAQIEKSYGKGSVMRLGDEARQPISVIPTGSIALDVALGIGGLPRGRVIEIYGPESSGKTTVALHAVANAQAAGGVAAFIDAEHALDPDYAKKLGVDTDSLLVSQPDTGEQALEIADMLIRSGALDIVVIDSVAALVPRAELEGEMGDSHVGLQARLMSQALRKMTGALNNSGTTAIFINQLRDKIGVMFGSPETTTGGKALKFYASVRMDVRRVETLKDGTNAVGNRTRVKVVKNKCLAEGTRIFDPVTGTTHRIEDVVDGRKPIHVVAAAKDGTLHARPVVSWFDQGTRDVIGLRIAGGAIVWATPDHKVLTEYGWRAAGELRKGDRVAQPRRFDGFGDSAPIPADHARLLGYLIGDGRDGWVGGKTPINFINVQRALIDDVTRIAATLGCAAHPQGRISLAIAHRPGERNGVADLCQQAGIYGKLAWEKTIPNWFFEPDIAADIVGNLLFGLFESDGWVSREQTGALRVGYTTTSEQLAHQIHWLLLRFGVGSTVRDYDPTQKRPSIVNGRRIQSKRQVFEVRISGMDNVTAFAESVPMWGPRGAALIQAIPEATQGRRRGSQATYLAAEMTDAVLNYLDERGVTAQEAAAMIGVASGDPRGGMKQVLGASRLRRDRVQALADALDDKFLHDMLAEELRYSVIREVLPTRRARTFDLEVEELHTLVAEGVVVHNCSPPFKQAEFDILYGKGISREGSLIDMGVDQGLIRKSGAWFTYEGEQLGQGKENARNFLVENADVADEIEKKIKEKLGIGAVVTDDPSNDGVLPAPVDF

Cytochrome P450 3A4 = Cytochrome P450 3A4 (Homo sapiens, UniProt P08684);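 note: CYP3A4 tested as one member of a cytochrome P450 panel screen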
Sequence of Cytochrome P450 3A4 (P08684 whole entry): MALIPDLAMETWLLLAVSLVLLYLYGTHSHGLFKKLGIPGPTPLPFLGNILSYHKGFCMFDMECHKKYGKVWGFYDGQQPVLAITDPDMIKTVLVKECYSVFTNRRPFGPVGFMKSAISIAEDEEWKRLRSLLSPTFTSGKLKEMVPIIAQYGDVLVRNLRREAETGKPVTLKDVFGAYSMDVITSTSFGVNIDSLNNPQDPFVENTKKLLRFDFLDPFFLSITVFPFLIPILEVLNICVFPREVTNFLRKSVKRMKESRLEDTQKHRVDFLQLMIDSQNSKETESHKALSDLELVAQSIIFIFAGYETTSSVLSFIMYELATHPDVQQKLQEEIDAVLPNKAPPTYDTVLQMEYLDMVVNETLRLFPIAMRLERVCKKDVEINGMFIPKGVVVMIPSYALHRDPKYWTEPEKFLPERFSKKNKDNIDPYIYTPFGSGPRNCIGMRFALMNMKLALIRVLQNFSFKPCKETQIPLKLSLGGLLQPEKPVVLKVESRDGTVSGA

## O=C1C(=Cc2cccs2)C(=O)c2ccccc21
[1]
  EC50: > 53 µM (inactive)
[2]
  IC50: > 47.1 µM (inactive)

## N#Cc1c(N2CCOCC2)nsc1-c1ccc(C(F)(F)F)cc1
H4
  EC50: 24.7 µM (active)
[3]
  EC50: 10.9 µM (active)

## N#C/C(=C\c1ccccc1)c1nc2ccc[nH]c-2n1
Cytochrome P450 2C19; read-out: AC50
  AC50: 28.2 µM (inconclusive)

## Cc1cccc(-c2nc(C[S+]([O-])CC(=O)N3CC(C)CC(C)C3)c(C)o2)c1 (centres undefined)
[1]
  EC50: > 53 µM (inactive)
[2]
  IC50: > 47.1 µM (inactive)

## O=C1NC(=Nc2ccccn2)SC1Cc1ccc(Cl)cc1 (centres undefined)
Streptokinase A
  EC50: > 150 µM (not active)

## O=C(NN1C(=O)CSC1=S)c1cccnc1
[1]
  EC50: > 53 µM (inactive)
[2]
  IC50: > 47.1 µM (inactive)

## CC(=O)N1N=C(c2ccc(C)cc2)OC1c1ccc(C(C)C)cc1 (centres undefined)
H4
  EC50: 6.68 µM (active)
[3]
  EC50: > 120 µM (not active)

## Cc1ccc(NC(=O)c2cnc(SCC(=O)NCC3CCCO3)n(C)c2=O)cc1C (centres undefined)
[4]
  AC50: 7.83 µM (active)
Protein RecA
  EC50: 2.23 µM (active)

## COc1ccccc1CNc1nc(-c2ccccc2CN(C)C)nc2ccccc12
Cytochrome P450 2C19; read-out: AC50
  AC50: 25.1 µM (inconclusive)

## OC(C#CCN1CCCCCC1)(c1ccccc1)c1cccnc1 (centres undefined)
[1]
  EC50: > 53 µM (inactive)
[2]
  IC50: > 47.1 µM (inactive)

## CCOC(=O)N1CCN(C(=O)CSc2nnc(-c3ccc(C(C)(C)C)cc3)o2)CC1
[1]
  EC50: > 53 µM (inactive)
[2]
  IC50: > 47.1 µM (inactive)

## O=C1NC(=O)N(CCc2ccc(F)cc2)C(=O)/C1=C/NCCCN1CCOCC1
Cytochrome P450 2C19
  AC50: inconclusive

## O=c1c(CCc2ccccc2)nc2cnc(Oc3ccccc3)nc2n1C[C@H]1CCCO1
Cytochrome P450 2C19; read-out: AC50
  AC50: 39.8 µM (inconclusive)
Cytochrome P450 3A4
  AC50: 0.0794 µM (inconclusive)

## Cc1cc(C(F)F)n2nc(C(=O)Nc3sc4c(c3C#N)CCC(C)C4)nc2n1 (centres undefined)
Cytochrome P450 2C19; read-out: AC50
  AC50: 31.6 µM (inconclusive)
Cytochrome P450 3A4
  AC50: 15.8 µM (inconclusive)

## CC1=NN(c2ccccc2)C(=O)C1/C=C1\C(=O)NC(=O)N(c2ccc(C)c(C)c2)C1=O (centres undefined)
[4]
  AC50: 23.6 µM (active)
Protein RecA
  EC50: 3.37 µM (active)

## Cc1sc(NC(=O)/C=C/C(=O)O)c(C(N)=O)c1-c1ccc(C(C)(C)C)cc1
[4]
  AC50: > 380 µM (inactive)
Protein RecA
  EC50: 5.82 µM (active)

## O=C(Nc1ccc(-c2nc3ccccc3s2)c(OC(=O)c2ccccc2)c1)c1ccccc1
H4
  EC50: > 120 µM (not active)
